Read-outs that look alike come from different tables or passages of the source. Values belong to the molecule of their own block, whether it stands above or below them.
Columns and labels:
[1] = In vivo stability / metabolism (HPLC of urine and feces); set-up: species or system Lewis rats
Experimental: Following dynamic PET-CT imaging, both urine and feces samples were collected to assess radiotracer’s metabolism and excretion route. The urine samples were collected at 90 min post injection by manual void, mixed at 1:1 ratio (v/v) with 50% CH3 CN and centrifuged at 5000 rpm. The supernatant was collected, analyzed by HPLC (C18 column, flow 1 mL/min, CH3 OH/H2 O, 5/95, v/v), and chromatograms compared to reference samples of (7) and ^64Cu-acetate. Feces samples were collected at 90 min post injection, suspended in 50% CH3 CN, homogenized and centrifuged at 5000 rpm. The supernatant was filtered and analyzed by RP-HPLC.

[2] = Biodistribution by gamma well counting at 90 min post-injection; type: in vivo, Lewis rats; settings: Lewis, rat, iv, total radioactivity, 90 min after intravascular injection
Experimental: To assess blood clearance and organ uptake dynamic in vivo PET-CT imaging was performed followed by image processing and analysis. Lewis rats (n = 6, Harlan Inc.) were anesthetized with 2% isoflurane, the neck area was shaved and a jugular vein cut-down procedure was performed to insert a PE-50 […] catheter for radiotracer injection. Animals were then placed in supine position on the polyacrylic imaging bed of a small animal dedicated PET-CT scanner (Inveon, Siemens Healthcare, USA). At the time of PET acquisition, animals were injected with ~22.2 MBq of (7) via the jugular vein catheter over 30 s followed by bolus infusion of 0.2 mL sterile saline. Animals underwent 60 min dynamic PET imaging (15% energy window centered at 511 keV) followed by anatomical X-ray CT imaging (80 keV, 500 μA, 100 μm spatial resolution).
For biodistribution studies, all animals were euthanized at 90 min post-injection and selected organ samples were collected for gamma well counting analysis. All collected sections were weighed and the tissue radioactivity was measured with Wizard^2 gamma well counter (Perkin-Elmer, USA). Measured ^64Cu activity was corrected for background, decay time, and tissue weight.

α V β 3 receptor = settings: cited from earlier work; for Kd: comparison values quoted in discussion, no reference given, read-out: binding affinity (Kd); for k off: dissociation from α V β 3 receptor
[3] = target: T1, αVβ3 integrin on human umbilical vein endothelial cells (HUVEC) (human (endogenous in HUVEC)), P06756; experiment: flow cytometry on cells; HUVEC pretreated with Mn2+ (20 μM) for 10 min, washed, then (8) 0-200 nM for 1 h at room temperature; settings: remark: other sources report otherwise
T1 chain 1: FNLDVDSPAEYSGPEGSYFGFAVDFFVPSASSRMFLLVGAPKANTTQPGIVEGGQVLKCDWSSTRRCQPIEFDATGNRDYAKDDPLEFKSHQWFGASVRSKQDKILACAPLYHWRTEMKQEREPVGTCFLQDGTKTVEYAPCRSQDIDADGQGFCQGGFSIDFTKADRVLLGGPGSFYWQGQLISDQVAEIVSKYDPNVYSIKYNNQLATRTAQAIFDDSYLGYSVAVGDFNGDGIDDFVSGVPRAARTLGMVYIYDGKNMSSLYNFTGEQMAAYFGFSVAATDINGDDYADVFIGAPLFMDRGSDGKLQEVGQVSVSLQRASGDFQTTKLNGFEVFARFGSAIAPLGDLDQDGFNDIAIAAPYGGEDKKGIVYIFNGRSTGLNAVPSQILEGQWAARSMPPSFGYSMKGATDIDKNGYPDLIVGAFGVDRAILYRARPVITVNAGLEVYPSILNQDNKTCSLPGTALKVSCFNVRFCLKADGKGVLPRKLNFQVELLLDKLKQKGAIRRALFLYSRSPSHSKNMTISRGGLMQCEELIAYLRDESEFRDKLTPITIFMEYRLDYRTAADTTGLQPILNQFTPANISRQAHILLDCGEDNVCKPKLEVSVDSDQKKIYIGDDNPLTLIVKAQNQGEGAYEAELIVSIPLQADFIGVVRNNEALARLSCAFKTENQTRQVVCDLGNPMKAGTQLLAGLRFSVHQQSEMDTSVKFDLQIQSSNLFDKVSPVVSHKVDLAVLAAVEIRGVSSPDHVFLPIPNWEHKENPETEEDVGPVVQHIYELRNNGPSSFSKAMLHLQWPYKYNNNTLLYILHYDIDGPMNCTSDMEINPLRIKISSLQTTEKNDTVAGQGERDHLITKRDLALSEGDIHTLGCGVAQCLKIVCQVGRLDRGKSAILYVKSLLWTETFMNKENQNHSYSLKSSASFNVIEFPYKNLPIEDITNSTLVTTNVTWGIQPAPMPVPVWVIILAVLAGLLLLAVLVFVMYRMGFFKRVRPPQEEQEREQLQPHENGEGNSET
T1 chain 2: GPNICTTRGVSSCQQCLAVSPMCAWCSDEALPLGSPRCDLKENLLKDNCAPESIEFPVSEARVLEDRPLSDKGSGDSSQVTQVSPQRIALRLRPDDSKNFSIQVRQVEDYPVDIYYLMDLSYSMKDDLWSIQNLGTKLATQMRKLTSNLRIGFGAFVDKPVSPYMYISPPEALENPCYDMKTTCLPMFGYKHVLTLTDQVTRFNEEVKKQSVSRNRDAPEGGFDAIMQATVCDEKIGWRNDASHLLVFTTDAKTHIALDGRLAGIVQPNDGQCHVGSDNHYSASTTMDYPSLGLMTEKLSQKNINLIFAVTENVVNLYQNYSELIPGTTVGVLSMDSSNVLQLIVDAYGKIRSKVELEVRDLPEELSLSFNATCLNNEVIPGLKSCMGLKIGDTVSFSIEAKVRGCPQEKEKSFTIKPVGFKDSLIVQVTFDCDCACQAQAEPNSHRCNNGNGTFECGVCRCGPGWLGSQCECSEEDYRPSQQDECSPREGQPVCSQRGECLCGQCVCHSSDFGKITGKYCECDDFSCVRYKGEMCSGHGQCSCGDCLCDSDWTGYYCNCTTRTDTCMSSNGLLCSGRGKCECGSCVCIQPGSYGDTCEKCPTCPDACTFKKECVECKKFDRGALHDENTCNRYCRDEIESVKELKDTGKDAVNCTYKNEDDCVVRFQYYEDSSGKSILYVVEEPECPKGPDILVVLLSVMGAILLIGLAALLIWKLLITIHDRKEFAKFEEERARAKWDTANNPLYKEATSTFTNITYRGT

[4] = target: T1, αVβ3 integrin on human umbilical vein …; experiment: radioligand binding; HUVEC pretreated with Mn2+ (20 μM) for 10 min, washed, then (7) 0-100 nM for 1 h at room temperature; gamma well counting; settings: remark: other sources report otherwise

Molecule: fibrinogen
- Kd (α V β 3 receptor): 27 nM
- k off (α V β 3 receptor): 0.00098 s⁻¹

Molecule: vibronectin: classical adhesive protein
- Kd (α V β 3 receptor): 64 nM
- k off (α V β 3 receptor): 0.00021 s⁻¹

Continued, values first:

- activity in the feces ([1]; feces collected at 90 min post injection, RP-HPLC): no detectable activity
- fraction remaining intact in the urine ([1]; urine collected at 90 min post injection, HPLC): more than 90%
- tissue uptake at […] ([2]; intestines, read-out: uptake in intestines): 4.62 ± 0.24 %ID/g
- tissue uptake at […] ([2]; kidney cortex, read-out: uptake in kidney cortex): 11.1 ± 2.2 %ID/g
- tissue uptake at […] ([2]; kidney medulla, read-out: uptake in kidney medulla): 3.66 ± 0.4 %ID/g
- tissue uptake at […] ([2]; lungs, read-out: uptake in lungs): 2.95 ± 0.43 %ID/g
- tissue uptake at […] ([2]; spleen, read-out: uptake in spleen): 2.25 ± 0.33 %ID/g
Molecule: N=C(N)NCCC[C@@H]1NC(=O)[C@H](CCCCNC(=O)COCCOCCn2cc(CNC(=O)CC[C@H](NC(=O)CCOCCOCCOCCOCCNC(=S)Nc3ccc(CC4CN(CC(=O)O)CCN(CC(=O)O)CCN4CC(=O)O)cc3)C(=O)NCc3cn(CCOCCOCC(=O)NCCCC[C@@H]4NC(=O)[C@@H](Cc5ccccc5)NC(=O)[C@H](CC(=O)O)NC(=O)CNC(=O)[C@H](CCCNC(=N)N)NC4=O)nn3)nn2)NC(=O)[C@@H](Cc2ccccc2)NC(=O)[C@H](CC(=O)O)NC(=O)CNC1=O (stereo partly shown) [compound 7]

- increase of binding against HUVECs without Mn2+ [3]: 78%
B1: FITC-PEG4-cRGD2 (8) (peptide)
chain: cyclo(RGDFK)
modifications: also: cyclic RGD dimer: each peptide via N3-PEG2 triazole on Glu bis-propargyl amide, PEG4, fluorescein (from FITC)

- increase of binding against HUVECs without Mn2+ [4]: 78%
B2: 64Cu-NOTA-PEG4-cRGD2 (7) (peptide)
chain: cyclo(RGDFK)
modifications: also: cyclic RGD dimer: each peptide via N3-PEG2 triazole on Glu bis-propargyl amide, PEG4, NOTA, 64Cu
